How the values were obtained:
SW620E = assay: Neutral red uptake antiproliferative assay, MDR line SW620E; type: cell-based, human; conditions: for IC50: exposure time 72 h, n = 3, ABCC1- and ABCB1-overexpressing MDR line; for activity factor IC50(1)/IC50(3a–4d), SW620E: vs corresponding amine (R)-1 or (S)-1, 72 h
From the text: (§1) Next, we evaluated the cytotoxicity of the synthesized complexes toward the panel of six multidrug-resistant (MDR) cell lines derived from SW620 and characterized by the overexpression of various ABC proteins, namely, ABCG2 (SW620C and SW620Mito), ABCC1 (SW620M and SW620E), and ABCB1 (SW620D, SW620E, and SW620V) (Table 3, Figures S29 and S32). […] The activity of the complexes derived from the ligand (S)-2 is also considerably higher than that of the compounds containing the ligand (R)-2. The cytotoxicity of both rhodium 4c and iridium 4d complexes is higher than that of amine (S)-1. In the case of 4c, the increase in cytotoxicity is low, with the highest value of 3.7-fold for the SW620Mito line. […] Compound 4d also exerts a 2.1- and 2.6-fold higher cytotoxicity than […] against the SW620C and SW620D lines.
(§2) For this purpose, neutral red uptake assay was performed. […] The results were presented as a percentage of control.

SW620D = assay: Neutral red uptake antiproliferative assay, MDR line SW620D; type: cell-based, human; conditions: for IC50: exposure time 72 h, n = 3, ABCB1-overexpressing MDR line; for activity factor IC50(1)/IC50(3a–4d), SW620D: vs corresponding amine (R)-1 or (S)-1, 72 h
From the text: as §1, §2

MCF7 = assay: cells; conditions: for IC50: read-out: IC50 MCF7, exposure time 72 h, n = 3, 95% CI given; for activity factor IC50(1)/IC50(3a–4d), MCF7: vs corresponding amine (R)-1 or (S)-1, 72 h
From the text: (§3) To assess the impact of conjugating half-sandwich complexes with amines 1 via an imine-pyridine ligand on biological activity, we examined the antiproliferative potential of (R)- and (S)-1 and organometallic conjugates 3a–d and 4a–d in selected human cancer cell lines: alveolar basal epithelial cell adenocarcinoma (A549), colorectal adenocarcinomas (Colo205 and SW620), colorectal carcinoma (HCT116), hepatocellular carcinoma (HepG2), and breast adenocarcinoma (MCF7). The choice of cell lines was dictated by results of previously published clinical trials on ispinesib.[49],[50]
(§4) Cell lines used in this study were purchased from the American Type Culture Collection via LGC Standards. Human normal lung fibroblasts (MRC-5), alveolar basal epithelial cell adenocarcinoma (A549), colorectal adenocarcinoma (Colo205), hepatocellular carcinoma (HepG2), breast adenocarcinoma (MCF7), and colorectal adenocarcinoma (SW620) and its MDR variants[55] were cultured in standard conditions (37 °C, 5% CO2, 100% relative humidity) in high glucose DMEM medium supplemented with GlutaMax, HEPES (ThermoFisher Scientific) and 10% fetal bovine serum (EURx, Poland). All cell lines were tested for Mycoplasma contamination using a MycoProbe mycoplasma detection kit (R&D System).
(§5) For this purpose, neutral red uptake assay was performed. 10^4 of cells were seeded per well of a 96-well plate and left overnight to allow cells to attach to the surface. Then, the cells were exposed to a desired concentration of tested compounds. Stock solutions were prepared in DMSO and were used immediately after preparation. The final concentration of DMSO was constant and nontoxic (0.1% v/v). After 70 h of culture, neutral red was added to the final concentration of 1 mM. After 2 h of incubation with the dye, the medium was aspirated and cells were washed with ice-cold PBS. The dye was released using 100 μL of the solubilizer (1% acetic acid in 50% ethanol) on an orbital shaker (10 min). The absorbance at 540 nm was measured using an EnVision multilabel plate reader (PerkinElmer). […] The IC90 and IC50 parameters were calculated using GraphPad Prism v9 software using the five-parameter nonlinear logistic regression model.

HepG2 = assay: cells; conditions: for IC50: read-out: IC50 HepG2, exposure time 72 h, n = 3, 95% CI given; for activity factor IC50(1)/IC50(3a–4d), HepG2: vs corresponding amine (R)-1 or (S)-1, 72 h
From the text: as §3, §4, §5

Colo205 = assay: cells; conditions: for IC50: read-out: IC50 Colo205, exposure time 72 h, n = 3, 95% CI given; for activity factor IC50(1)/IC50(3a–4d), Colo205: vs corresponding amine (R)-1 or (S)-1, 72 h
From the text: as §3, §4, §5

SW620 = assay: Neutral red uptake antiproliferative assay, SW620; type: cell-based, human; conditions: for IC50: exposure time 72 h, n = 3, 95% CI given; for activity factor IC50(1)/IC50(3a–4d), SW620: vs corresponding amine (R)-1 or (S)-1, 72 h
From the text: as §3, §4, §5

[1] = Stability study in the presence of L-histidine (UV-vis, HPLC-MS); type: physicochemical; conditions: 20 μM complex, 0.2 mM L-histidine in water, 0.5 vol % DMSO, followed over 2 h
From the text: For biological studies, compounds are commonly administered as dimethyl sulfoxide (DMSO) solution to cells cultured in a specific medium such as Dulbecco’s modified Eagle’s medium (DMEM). DMEM consists of numerous organic compounds which may act as ligands for organometallics. Therefore, it is important to know how the compounds behave in such conditions. The two most prominent components of DMEM which may coordinate to half-sandwich complexes are L-cysteine and L-histidine. Both of those amino acids are present in DMEM at 0.2 mM concentration, so we studied how the complexes interact with them using UV–vis spectroscopy and HPLC-MS analysis. The DMSO solutions of complexes were added to the aqueous solution of L-cysteine or L-histidine to achieve a complex concentration of 20 μM while keeping the DMSO concentration at 0.5 vol %. […] HPLC-MS analysis confirmed the formation of an additional peak at τ = 0.95 min with m/z 714 assigned to [M-Cl-PF6 + HCOOH]^+; additionally, the intensity of peaks corresponding to 3c is lower (Figure S26). […] The intensity of absorbance peaks at λ = 287 and λ = 372 nm in the presence of cysteine is decreasing, while the intensity of peaks at λ = 304 and λ = 318 nm is almost intact.
The stability of 3a–d was studied in the presence of L-cysteine or L-histidine. 3a–d were dissolved in DMSO and added to 0.2 mM aqueous solution of L-cysteine or L-histidine to achieve the complex concentration of 20 μM while keeping the DMSO concentration at 0.5 vol %. UV–vis spectra were recorded over 2 h with 10 min intervals.

SW620V = assay: Neutral red uptake antiproliferative assay, MDR line SW620V; type: cell-based, human; conditions: for IC50: exposure time 72 h, n = 3, ABCB1-overexpressing MDR line; for activity factor IC50(1)/IC50(3a–4d), SW620V: vs corresponding amine (R)-1 or (S)-1, 72 h
From the text: as §1, §2

Row | Compound | IC50 (SW620E) | activity factor IC50(1)/IC50(3a–4d), SW620E (SW620E) | IC50 (SW620D) | activity factor IC50(1)/IC50(3a–4d), SW620D (SW620D) | increased cytotoxicity vs corresponding amine 1, MCF7 (MCF7) | IC50 (MCF7) | activity factor IC50(1)/IC50(3a–4d), MCF7 (MCF7) | increased cytotoxicity vs corresponding amine 1, HepG2 (HepG2) | IC50 (HepG2) | activity factor IC50(1)/IC50(3a–4d), HepG2 (HepG2) | IC50 (Colo205) | activity factor IC50(1)/IC50(3a–4d), Colo205 (Colo205) | IC50 (SW620) | activity factor IC50(1)/IC50(3a–4d), SW620 (SW620) | reaction with L-histidine (stability) [1] | IC50 (SW620V) | activity factor IC50(1)/IC50(3a–4d), SW620V (SW620V) | higher cytotoxicity than corresponding amine 1, SW620D (SW620D; rounded value)
1 | CC(C)[C@@H](N=Cc1ccccn1)c1nc2cc(Cl)ccc2c(=O)n1Cc1ccccc1.Cc1ccc(C(C)C)cc1.F[P-](F)(F)(F)(F)F.[Cl-].[Os+2] [Compound 3b, [(cym)Os((R)-2)Cl]PF6] | 3520 nM | (0.237) | 3920 nM | (0.286) | 3 fold | 73 nM | (3.16) | 3 fold | 188 nM | (3.01) | 448 nM | (0.239) | 556 nM | (0.173) | neither ruthenium 3a nor the osmium complex 3b reacts with those amino acids within 2 h | 1030 nM | (0.200) | 
2 | CC(C)[C@@H](N=Cc1ccccn1)c1nc2cc(Cl)ccc2c(=O)n1Cc1ccccc1.Cc1c(C)c(C)[c-](C)c1C.F[P-](F)(F)(F)(F)F.[Cl-].[Rh+3] [Compound 3c, [(Cp*)Rh((R)-2)Cl]PF6] | 880 nM | (0.949) | 4180 nM | (0.268) |  | 357 nM | (0.647) |  | 689 nM | (0.821) | 138 nM | (0.775) | 152 nM | (0.632) | A similar effect is observed in the case of L-histidine | 210 nM | (0.981) | 
3 | CC(C)[C@@H](N=Cc1ccccn1)c1nc2cc(Cl)ccc2c(=O)n1Cc1ccccc1.Cc1ccc(C(C)C)cc1.F[P-](F)(F)(F)(F)F.[Cl-].[Ru+2] [Compound 3a, [(cym)Ru((R)-2)Cl]PF6] | 5520 nM | (0.151) | 7230 nM | (0.155) |  | 858 nM | (0.269) |  | 1570 nM | (0.360) | 1260 nM | (0.085) | 1220 nM | (0.079) | neither ruthenium 3a nor the osmium complex 3b reacts with those amino acids within 2 h | 4710 nM | (0.044) | 
4 | CC(C)[C@@H](N=Cc1ccccn1)c1nc2cc(Cl)ccc2c(=O)n1Cc1ccccc1.Cc1c(C)c(C)[c-](C)c1C.F[P-](F)(F)(F)(F)F.[Cl-].[Ir+3] [Compound 3d, [(Cp*)Ir((R)-2)Cl]PF6] | 1020 nM | (0.819) | 644 nM | (1.74) |  | 653 nM | (0.354) |  | 454 nM | (1.25) | 524 nM | (0.204) | 198 nM | (0.485) | reacts with both L-cysteine and L-histidine (Figure 6) in 40 min | 267 nM | (0.771) | 1.7 fold

Source: publication PMC11044151, “Development of Half-Sandwich Ru, Os, Rh, and Ir Complexes Bearing the Pyridine-2-ylmethanimine Bidentate Ligand Derived from 7-Chloroquinazolin-4(3H)-one with Enhanced Antiproliferative Activity” (ACS Omega, 2024)
